How the values were obtained:
[1] = molecular target: T1, ZIKV NS5 full-length protein (Zika virus, UniProt A0A024B7W1); test: SPR (BIAcore) binding to ZIKV NS5 full-length protein; conditions: qualitative
T1 construct: NS5 (amino acids 1 to 903); His tag (8x histidine) (N); made in house; host or cells: Escherichia coli (Rosetta)
Description: (§1) The cDNA fragment of ZIKV (ZG-01 strain) NS5 (amino acids 1 to 903), RdRp (amino acids 272 to 903), or DENV2 NS5 (amino acids 1 to 900) containing an N-terminal His tag sequence was cloned into a pET-30a-mutant vector. For protein expression, the plasmids were transformed into Rosetta™ competent cells (TIANGEN BIOTECH Co., Ltd., Beijing, China), respectively. […] Mass spectrometry was performed by Shanghai Applied Protein Technology Co. Ltd. (Shanghai, China). The concentration of a targeted protein was measured by SDS-PAGE using BSA (Sigma, St. Louis, MO) as a standard.
Surface plasmon resonance (SPR) experiments were performed in a BIAcore T100 device (BIAcore Inc., Uppsala, Sweden) using CM5 sensor chips (General Electric Company, GE) according to the protocol provided by the manufacturer. Briefly, recombinant ZIKV NS5 protein, RdRp protein, or DENV2 NS5 protein was immobilized on a CM5 chip, respectively. Different concentrations of fidaxomicin or ribavirin were injected at a flow rate of 30 μL/min for 3 min. Subsequently, data were collected for a 3-min association followed by a 20-min dissociation. The chip was regenerated by injecting 10 μL of 15 mM NaOH for 20 s. […] The binding kinetics was analyzed with the software BIAevaluation version 3.1 using a 1:1 Langmuir binding model. The Kd was calculated as previously described.

[2] = molecular target: T2, ZIKV RdRp protein (Zika virus, UniProt A0A024B7W1); test: SPR (BIAcore) binding to ZIKV RdRp protein; conditions: qualitative
T2 construct: RdRp (amino acids 272 to 903); His tag (8x histidine) (N); made in house; host or cells: Escherichia coli (Rosetta)
Description: as §1
Surface plasmon resonance (SPR) experiments were performed in a BIAcore T100 device (BIAcore Inc., Uppsala, Sweden) using CM5 sensor chips (General Electric Company, GE) according to the protocol provided by the manufacturer. Briefly, recombinant ZIKV NS5 protein, RdRp protein, or DENV2 NS5 protein was immobilized on a CM5 chip, respectively. Different concentrations of fidaxomicin or ribavirin were injected at a flow rate of 30 μL/min for 3 min. Subsequently, data were collected for a 3-min association followed by a 20-min dissociation. The chip was regenerated by injecting 10 μL of 15 mM NaOH for 20 s. All procedures were run in 1% DMSO PBS-P20 (GE) as a running buffer. The binding kinetics was analyzed with the software BIAevaluation version 3.1 using a 1:1 Langmuir binding model. The Kd was calculated as previously described.

[3] = test system: ZIKV ZG-01 strain; test: In vitro antiviral assay, plaque assay, ZIKV ZG-01; conditions: for EC50 / EC90: Zika virus
Description: The anti-ZIKV activity of fidaxomicin and ribavirin was evaluated in vitro by plaque assay. Various cell lines, including SNB19 (6 × 10^4/well, 10% FBS DMEM), A172 (7 × 10^4/well, 10% FBS DMEM), Vero (6 × 10^4/well 10% FBS DMEM), Huh7 (7 × 10^4/well, 10% FBS DMEM), HUVECs (7 × 10^4/well, 15% FBS M199 medium supplemented with 2 mM L-glutamine, 0.02 mg/mL endothelial cell growth supplement, and 0.05 mg/mL heparin), and A549 (6 × 10^4/well, 5% FBS DMEM), were plated in 12-well plates and allowed to attach overnight, followed by infection with ZIKV (ZG-01 strain or MR766 strain, respectively, at indicated MOI) in the presence of different concentrations of fidaxomicin, ribavirin, or vehicle control for 1 h, followed by two washes with 1 × PBS and incubated with fresh medium (without virus) consisting of corresponding concentrations of the compounds for further 48 h. The cell supernatants were collected to quantify ZIKV infection by plaque assay as previously described or by RT-qPCR. […] The anti-DENV activity of fidaxomicin was evaluated in vitro by RT-qPCR.

[4] = test system: ZIKV MR766 strain; test: In vitro antiviral assay, plaque assay, ZIKV MR766; type: cell-based; conditions: Zika virus, 48 h
Description: Various cell lines, including SNB19 (6 × 10^4/well, 10% FBS DMEM), A172 (7 × 10^4/well, 10% FBS DMEM), Vero (6 × 10^4/well 10% FBS DMEM), Huh7 (7 × 10^4/well, 10% FBS DMEM), HUVECs (7 × 10^4/well, 15% FBS M199 medium supplemented with 2 mM L-glutamine, 0.02 mg/mL endothelial cell growth supplement, and 0.05 mg/mL heparin), and A549 (6 × 10^4/well, 5% FBS DMEM), were plated in 12-well plates and allowed to attach overnight, followed by infection with ZIKV (ZG-01 strain or MR766 strain, respectively, at indicated MOI) in the presence of different concentrations of fidaxomicin, ribavirin, or vehicle control for 1 h, followed by two washes with 1 × PBS and incubated with fresh medium (without virus) consisting of corresponding concentrations of the compounds for further 48 h. The cell supernatants were collected to quantify ZIKV infection by plaque assay as previously described [47] or by RT-qPCR.

[5] = in vitro; conditions: African green monkey
Description: Cell viability was detected by the 3-(4,5-dimethyl-2-thiazolyl)-2,5-diphenyl-2H-tetrazolium bromide (MTT) assay according to a previously described method [48]. Briefly, cells were seeded in 96-well plates at a density of 1 × 10^4 cells per well and cultured at 37 °C for 24 h, followed by exposure to the serially diluted fidaxomicin or ribavirin separately for 48 h. Cell survival rate was determined by MTT reduction assay according to the manufacturer’s protocol (Invitrogen). The 50% cytotoxic concentration (CC50) was defined as the compound concentration required to inhibit the cell growth by 50% compared with the control assay. The assay was performed in triplicates in three independent experiments.

T2 sequence (A0A024B7W1 2792-3423): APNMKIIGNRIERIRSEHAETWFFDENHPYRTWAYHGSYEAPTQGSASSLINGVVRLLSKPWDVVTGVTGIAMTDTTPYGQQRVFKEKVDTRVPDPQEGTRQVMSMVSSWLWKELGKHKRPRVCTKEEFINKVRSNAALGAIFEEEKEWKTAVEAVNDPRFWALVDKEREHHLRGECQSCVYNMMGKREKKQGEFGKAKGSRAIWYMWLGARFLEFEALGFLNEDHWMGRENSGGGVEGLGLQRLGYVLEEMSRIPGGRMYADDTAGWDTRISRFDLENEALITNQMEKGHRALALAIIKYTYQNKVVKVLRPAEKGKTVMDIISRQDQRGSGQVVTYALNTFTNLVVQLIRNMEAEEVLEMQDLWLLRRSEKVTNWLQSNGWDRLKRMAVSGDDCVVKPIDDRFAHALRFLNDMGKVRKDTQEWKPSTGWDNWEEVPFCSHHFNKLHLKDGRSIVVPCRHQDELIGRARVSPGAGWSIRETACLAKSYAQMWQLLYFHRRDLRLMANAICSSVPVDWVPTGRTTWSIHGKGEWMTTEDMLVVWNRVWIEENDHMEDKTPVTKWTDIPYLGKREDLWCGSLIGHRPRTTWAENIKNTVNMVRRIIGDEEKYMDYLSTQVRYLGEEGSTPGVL
T1 sequence (A0A024B7W1 2521-3423): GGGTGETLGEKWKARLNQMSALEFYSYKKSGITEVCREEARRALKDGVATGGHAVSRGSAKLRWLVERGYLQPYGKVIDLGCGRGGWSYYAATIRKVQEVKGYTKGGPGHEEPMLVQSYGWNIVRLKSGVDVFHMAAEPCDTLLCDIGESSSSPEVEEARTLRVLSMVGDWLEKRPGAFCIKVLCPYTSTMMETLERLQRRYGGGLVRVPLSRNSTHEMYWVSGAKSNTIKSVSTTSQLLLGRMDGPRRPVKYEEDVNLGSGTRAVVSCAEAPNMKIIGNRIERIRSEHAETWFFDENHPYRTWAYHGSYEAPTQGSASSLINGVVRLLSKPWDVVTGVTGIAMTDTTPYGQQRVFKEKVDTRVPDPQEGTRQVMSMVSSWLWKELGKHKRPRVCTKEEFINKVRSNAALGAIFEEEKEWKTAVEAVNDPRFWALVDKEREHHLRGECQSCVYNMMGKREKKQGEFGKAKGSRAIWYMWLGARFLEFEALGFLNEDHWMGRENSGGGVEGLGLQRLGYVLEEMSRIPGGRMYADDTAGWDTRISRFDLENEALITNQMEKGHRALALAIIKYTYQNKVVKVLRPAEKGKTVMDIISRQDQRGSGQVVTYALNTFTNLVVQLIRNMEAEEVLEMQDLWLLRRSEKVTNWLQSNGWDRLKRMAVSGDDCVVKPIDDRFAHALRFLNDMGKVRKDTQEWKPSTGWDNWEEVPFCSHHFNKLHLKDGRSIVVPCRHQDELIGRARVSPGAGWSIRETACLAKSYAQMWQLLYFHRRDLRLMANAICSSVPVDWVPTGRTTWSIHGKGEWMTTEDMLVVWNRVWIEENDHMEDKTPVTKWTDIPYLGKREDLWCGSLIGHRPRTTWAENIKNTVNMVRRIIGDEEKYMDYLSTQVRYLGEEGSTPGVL

For `NC(=O)c1ncn([C@@H]2O[C@H](CO)[C@@H](O)[C@H]2O)n1` [Ribavirin, ribavirin], the “binding to ZIKV NS5 protein (SPR)” value [1] was “very weak interaction”, the “binding to ZIKV RdRp protein (SPR)” value [2] was “weak” and the “efficacy against ZIKV infection under non-cytotoxic concentration” value ([3]; SNB19 cells) was “far less effective”. For the same molecule, the EC50 ([3]; A549, 48 h) was 33.2 ± 3.4 µM, the EC90 ([3]; A549, 48 h) was 71.6 ± 6.2 µM and the EC50 ([3]; Huh-7, 48 h) was 12.7 ± 2.3 µM. It also gave an EC90 ([3]; Huh-7, 48 h) of 54.3 ± 3.5 µM, an EC50 ([3]; SNB-19, 48 h) greater than 100 µM and an EC90 ([3]; SNB-19, 48 h) greater than 100 µM. The EC50 ([3]; Vero, 48 h) was greater than 100 µM, the EC90 ([3]; Vero, 48 h) was greater than 100 µM and the EC50 ([4]; A549 cells) was 35.2 ± 5.2 µM. It also gave an EC90 ([4]; A549 cells) of 74.6 ± 8.5 µM, an EC50 ([4]; Huh-7, Huh7 cells) of 15.6 ± 2.1 µM and an EC90 ([4]; Huh-7, Huh7 cells) of 58.3 ± 3.2 µM. For the same molecule, the EC50 ([4]; SNB-19, SNB19 cells) was greater than 100 µM, the EC90 ([4]; SNB-19, SNB19 cells) was greater than 100 µM and the EC50 ([4]; Vero cells) was greater than 100 µM. It also gave an EC90 ([4]; Vero cells) greater than 100 µM and a CC50 at 48 h [5] of 486 ± 20.1 µM.

Source: PMC7392643, “Antibiotic fidaxomicin is an RdRp inhibitor as a potential new therapeutic agent against Zika virus” (BMC Medicine, 2020)
